Read-outs that look alike come from different tables or passages of the source.

One assay addresses rat orexin 1 receptor (Rattus norvegicus (Rat), UniProt P56718). The assay is described as follows: Rat orexin 1 receptor radioligand binding (competitive binding, HEK293 membranes).
A further assay has as its target human orexin 1 receptor (Homo sapiens (Human), UniProt O43613). Description: Human orexin 1 receptor radioligand binding (competitive binding, CHO membranes).
A further assay concerns the target human orexin 2 receptor (Homo sapiens (Human), UniProt O43614). Description: Human orexin 2 receptor radioligand binding ([3H]-EMPA competition, HEK293 membranes).
Where [1] appears, read: rat orexin 1 receptor, Table 2, averages from between 2-20 runs, read-out: rOX1 Ki.
Where [2] appears, read: human orexin 1 receptor, Table 2, averages from between 2-20 runs, read-out: hOX1 Ki.
The mark [3] stands for this setting: human orexin 2 receptor, Table 2, averages from between 2-20 runs, read-out: hOX2 Ki.
Where [4] appears, read: Table 2, further testing, averages from 2-20 runs, read-out: rOX1 Ki.
The mark [5] stands for this setting: Table 2, further testing, averages from 2-20 runs, read-out: hOX1 Ki.
Where [6] appears, read: Table 2, further testing, averages from 2-20 runs, read-out: hOX2 Ki.

Sequence of rat orexin 1 receptor (P56718 whole entry): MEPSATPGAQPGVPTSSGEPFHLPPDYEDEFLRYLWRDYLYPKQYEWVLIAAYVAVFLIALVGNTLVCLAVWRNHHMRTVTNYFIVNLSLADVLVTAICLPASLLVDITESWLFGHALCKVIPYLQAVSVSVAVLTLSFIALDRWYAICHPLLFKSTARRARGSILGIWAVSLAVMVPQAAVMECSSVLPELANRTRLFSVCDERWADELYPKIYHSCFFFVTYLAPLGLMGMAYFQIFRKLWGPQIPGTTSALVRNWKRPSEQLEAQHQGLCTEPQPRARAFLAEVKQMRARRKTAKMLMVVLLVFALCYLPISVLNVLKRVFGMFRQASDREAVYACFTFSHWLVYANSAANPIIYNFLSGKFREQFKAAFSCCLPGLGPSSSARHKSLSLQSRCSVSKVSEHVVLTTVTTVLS
Sequence of human orexin 2 receptor (O43614 whole entry): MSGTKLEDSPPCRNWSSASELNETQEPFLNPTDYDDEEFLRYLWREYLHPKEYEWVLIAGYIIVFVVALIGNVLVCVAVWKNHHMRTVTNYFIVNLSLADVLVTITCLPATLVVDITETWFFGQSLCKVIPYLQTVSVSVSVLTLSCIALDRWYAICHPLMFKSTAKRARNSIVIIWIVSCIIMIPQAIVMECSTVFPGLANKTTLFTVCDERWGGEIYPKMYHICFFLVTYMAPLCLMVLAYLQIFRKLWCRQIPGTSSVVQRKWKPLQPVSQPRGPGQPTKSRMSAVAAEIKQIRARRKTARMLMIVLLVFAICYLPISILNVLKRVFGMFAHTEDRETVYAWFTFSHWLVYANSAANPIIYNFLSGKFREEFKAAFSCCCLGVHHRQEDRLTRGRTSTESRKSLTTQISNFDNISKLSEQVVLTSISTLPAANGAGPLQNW
Sequence of human orexin 1 receptor (O43613 whole entry): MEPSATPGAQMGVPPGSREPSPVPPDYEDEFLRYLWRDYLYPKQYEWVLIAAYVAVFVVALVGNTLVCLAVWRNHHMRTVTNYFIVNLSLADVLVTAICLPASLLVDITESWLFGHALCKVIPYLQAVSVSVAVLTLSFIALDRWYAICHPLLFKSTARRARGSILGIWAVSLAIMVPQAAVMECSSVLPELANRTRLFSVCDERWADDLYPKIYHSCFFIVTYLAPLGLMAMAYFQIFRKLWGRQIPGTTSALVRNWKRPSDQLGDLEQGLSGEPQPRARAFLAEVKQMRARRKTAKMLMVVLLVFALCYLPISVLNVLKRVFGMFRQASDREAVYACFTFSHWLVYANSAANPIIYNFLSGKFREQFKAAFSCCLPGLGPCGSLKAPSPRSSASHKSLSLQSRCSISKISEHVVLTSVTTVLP

For the molecule `O=C(c1cccc(F)c1-c1ncc(F)cn1)N1[C@@H]2CC[C@H]1[C@H](Nc1cnc(C(F)(F)F)cn1)C2` [Example 398, (3-fluoro-2-(5-fluoropyrimidin-2-yl)phenyl)((1S,2R,4R)-2-((5-(trifluoromethyl)pyrazin-2-yl)amino)-7-azabicyclo[2.2.1]heptan-7-yl)methanone], the values for the inhibition constant Ki at rat orexin 1 receptor (setting [1]), on human orexin 1 receptor (setting [2]) and on human orexin 2 receptor (setting [3]) were 0.061 µM, 0.081 µM and 2.1 µM, respectively.
With `Cc1cnc(C(=O)N2[C@@H]3CC[C@H]2[C@H](Nc2ncc(C(F)(F)F)cc2F)C3)c(-c2ncccn2)c1` [Example 457, ((1S,2R,4R)-2-((3-fluoro-5-(trifluoromethyl)pyridin-2-yl)amino)-7-azabicyclo[2.2.1]heptan-7-yl)(5-methyl-3-(pyrimidin-2-yl)pyridin-2-yl)methanone], the inhibition constant Ki at rat orexin 1 receptor (setting [4]) worked out at 0.055 µM; at human orexin 1 receptor (setting [5]), 0.098 µM; at human orexin 2 receptor (setting [6]) it was 9.1 µM.
As to `Cc1cccc(C(=O)N2[C@@H]3CC[C@H]2[C@H](Nc2cnc(C(F)(F)F)cn2)C3)c1-c1ncc(F)cn1` [Example 399, (2-(5-fluoropyrimidin-2-yl)-3-methylphenyl)((1S,2R,4R)-2-((5-(trifluoromethyl)pyrazin-2-yl)amino)-7-azabicyclo[2.2.1]heptan-7-yl)methanone], the inhibition constant Ki on rat orexin 1 receptor (read-out: rOX1 Ki) worked out at 0.01 µM; on human orexin 1 receptor (read-out: hOX1 Ki) it was 0.009 µM; on human orexin 2 receptor (setting [3]), 0.3 µM.
With `O=C(c1ccccc1-c1ncccn1)N1[C@@H]2CC[C@H]1[C@H](Nc1ncc(C(F)(F)F)cc1F)C2` [Example 461, ((1S,2R,4R)-2-((3-fluoro-5-(trifluoromethyl)pyridin-2-yl)amino)-7-azabicyclo[2.2.1]heptan-7-yl)(2-(pyrimidin-2-yl)phenyl)methanone], the Ki turned out to be 0.03 µM at rat orexin 1 receptor (setting [4]), 0.024 µM on human orexin 1 receptor (setting [5]) and 0.76 µM at human orexin 2 receptor (setting [6]).
Consider `Cc1cccc(C(=O)N2[C@@H]3CC[C@H]2[C@H](Nc2ccc(C#N)cn2)C3)c1-n1nccn1` [Example 391, 6-(((1S,2R,4R)-7-(3-methyl-2-(2H-1,2,3-triazol-2-yl)benzoyl)-7-azabicyclo[2.2.1]heptan-2-yl)amino)nicotinonitrile], for which the values for the Ki at rat orexin 1 receptor (setting [1]), on human orexin 1 receptor (setting [2]) and on human orexin 2 receptor (setting [3]) were 0.22 µM, 0.315 µM and 4.4 µM, respectively.
As to `O=C(c1cccc(F)c1-c1ncc(F)cn1)N1[C@@H]2CC[C@H]1[C@H](Nc1ccc(C(F)(F)F)cn1)C2` [Example 375, (3-fluoro-2-(5-fluoropyrimidin-2-yl)phenyl)((1S,2R,4R)-2-((5-(trifluoromethyl)pyridin-2-yl)amino)-7-azabicyclo[2.2.1]heptan-7-yl)methanone], the figures for the inhibition constant (Ki) at rat orexin 1 receptor (read-out: rOX1 Ki), at human orexin 1 receptor (read-out: hOX1 Ki) and on human orexin 2 receptor (setting [3]) were 0.049 µM, 0.089 µM and 2.2 µM, respectively.
The matching figures for `O=C(c1ccccc1-c1ncc(F)cn1)N1[C@@H]2CC[C@H]1[C@H](Nc1ncc(C(F)(F)F)cc1Cl)C2` [Example 385, ((1S,2R,4R)-2-((3-chloro-5-(trifluoromethyl)pyridin-2-yl)amino)-7-azabicyclo[2.2.1]heptan-7-yl)(2-(5-fluoropyrimidin-2-yl)phenyl)methanone]: 0.037 µM, 0.044 µM and 0.696 µM.
The matching figures for `O=C(c1ccccc1-c1ncccn1)N1[C@@H]2CC[C@H]1[C@H](Nc1ccc(C(F)(F)F)cn1)C2` [Example 373, (2-(pyrimidin-2-yl)phenyl)((1S,2R,4R)-2-((5-(trifluoromethyl)pyridin-2-yl)amino)-7-azabicyclo[2.2.1]heptan-7-yl)methanone]: 0.034 µM, 0.036 µM and 0.679 µM.
As to `Cc1ccc(C(=O)N2[C@@H]3CC[C@H]2[C@H](Nc2ncc(C(F)(F)F)cc2F)C3)c(-n2nccn2)n1` [Example 452, ((1S,2R,4R)-2-((3-fluoro-5-(trifluoromethyl)pyridin-2-yl)amino)-7-azabicyclo[2.2.1]heptan-7-yl)(6-methyl-2-(2H-1,2,3-triazol-2-yl)pyridin-3-yl)methanone], the Ki is 0.176 µM at rat orexin 1 receptor (setting [4]), 0.223 µM at human orexin 1 receptor (setting [5]) and 0.437 µM on human orexin 2 receptor (setting [6]).
Take `O=C(c1c(F)cccc1-n1nccn1)N1[C@@H]2CC[C@H]1[C@H](Nc1ccc(C(F)(F)F)cn1)C2` [Example 370, (2-fluoro-6-(2H-1,2,3-triazol-2-yl)phenyl)((1S,2R,4R)-2-((5-(trifluoromethyl)pyridin-2-yl)amino)-7-azabicyclo[2.2.1]heptan-7-yl)methanone]: the inhibition constant (Ki) at rat orexin 1 receptor (setting [1]) amounted to 0.104 µM; on human orexin 1 receptor (setting [2]), 0.142 µM; on human orexin 2 receptor (setting [3]), 0.508 µM.
Regarding `O=C(c1c(F)cccc1-c1ncccn1)N1[C@@H]2CC[C@H]1[C@H](Nc1ncc(C(F)(F)F)cn1)C2` [Example 416, (2-fluoro-6-(pyrimidin-2-yl)phenyl)((1S,2R,4R)-2-((5-(trifluoromethyl)pyrimidin-2-yl)amino)-7-azabicyclo[2.2.1]heptan-7-yl)methanone], the Ki at rat orexin 1 receptor (setting [1]) was 0.138 µM; on human orexin 1 receptor (setting [2]), 0.085 µM; at human orexin 2 receptor (setting [3]) it was 2.1 µM.
For `O=C(c1cccc(F)c1-c1ncccn1)N1[C@@H]2CC[C@H]1[C@H](Nc1cnc(C(F)(F)F)cn1)C2` [Example 238, (3-fluoro-2-(pyrimidin-2-yl)phenyl)((1S,2R,4R)-2-((5-(trifluoromethyl)pyrazin-2-yl)amino)-7-azabicyclo[2.2.1]heptan-7-yl)methanone], the Ki was 0.015 µM on rat orexin 1 receptor, 0.015 µM on human orexin 1 receptor and 0.763 µM at human orexin 2 receptor.
In the case of `O=C(c1cccc(F)c1-n1nccn1)N1[C@@H]2CC[C@H]1[C@H](Nc1ccc(Br)cn1)C2` [Example 305, ((1S,2R,4R)-2-((5-bromopyridin-2-yl)amino)-7-azabicyclo[2.2.1]heptan-7-yl)(3-fluoro-2-(2H-1,2,3-triazol-2-yl)phenyl)methanone], the figures for the Ki on rat orexin 1 receptor (read-out: rOX1 Ki), at human orexin 1 receptor (read-out: hOX1 Ki) and at human orexin 2 receptor (setting [3]) were 0.024 µM, 0.012 µM and 0.98 µM, respectively.
In the case of `CN(c1ccc(C(F)(F)F)cn1)[C@@H]1C[C@H]2CC[C@@H]1N2C(=O)c1cccc(F)c1-c1ncccn1` [Example 377, (3-fluoro-2-(pyrimidin-2-yl)phenyl)((1S,2R,4R)-2-(methyl(5-(trifluoromethyl)pyridin-2-yl)amino)-7-azabicyclo[2.2.1]heptan-7-yl)methanone], the values for the inhibition constant (Ki) on rat orexin 1 receptor (setting [1]), on human orexin 1 receptor (setting [2]) and at human orexin 2 receptor (setting [3]) were 0.224 µM, 0.141 µM and 9 µM, respectively.
The matching figures for `O=C(c1ccc(F)cc1-n1nccn1)N1[C@@H]2CC[C@H]1[C@H](Nc1ccc(C(F)(F)F)cn1)C2` [Example 368, (4-fluoro-2-(2H-1,2,3-triazol-2-yl)phenyl)((1S,2R,4R)-2-((5-(trifluoromethyl)pyridin-2-yl)amino)-7-azabicyclo[2.2.1]heptan-7-yl)methanone]: 0.078 µM, 0.071 µM and 2.6 µM.
For `O=C(c1ncccc1-c1ncccn1)N1[C@@H]2CC[C@H]1[C@H](Nc1ncc(C(F)(F)F)cc1Cl)C2` [Example 387, ((1S,2R,4R)-2-((3-chloro-5-(trifluoromethyl)pyridin-2-yl)amino)-7-azabicyclo[2.2.1]heptan-7-yl)(3-(pyrimidin-2-yl)pyridin-2-yl)methanone], in that order: 0.04 µM, 0.033 µM and 1.1 µM.
`O=C(c1cccc(F)c1-c1ncccn1)N1[C@@H]2CC[C@H]1[C@H](Nc1ccc(C(F)(F)F)cn1)C2` [Example 279, (3-fluoro-2-(pyrimidin-2-yl)phenyl)((1S,2R,4R)-2-((5-(trifluoromethyl)pyridin-2-yl)amino)-7-azabicyclo[2.2.1]heptan-7-yl)methanone]: the Ki was 0.018 µM at rat orexin 1 receptor, 0.009 µM at human orexin 1 receptor and 0.99 µM at human orexin 2 receptor.
For `O=C(c1ncccc1-c1ncccn1)N1[C@@H]2CC[C@H]1[C@H](Nc1ncc(C(F)(F)F)cc1F)C2` [Example 458, ((1S,2R,4R)-2-((3-fluoro-5-(trifluoromethyl)pyridin-2-yl)amino)-7-azabicyclo[2.2.1]heptan-7-yl)(3-(pyrimidin-2-yl)pyridin-2-yl)methanone], the values for the inhibition constant Ki on rat orexin 1 receptor (setting [4]), on human orexin 1 receptor (setting [5]) and on human orexin 2 receptor (setting [6]) were 0.046 µM, 0.045 µM and 0.932 µM, respectively.
Consider `Cc1ccc(-c2ncccn2)c(C(=O)N2[C@@H]3CC[C@H]2[C@H](Nc2ccc(C(F)(F)F)cn2)C3)n1` [Example 379, (6-methyl-3-(pyrimidin-2-yl)pyridin-2-yl)((1S,2R,4R)-2-((5-(trifluoromethyl)pyridin-2-yl)amino)-7-azabicyclo[2.2.1]heptan-7-yl)methanone], for which the Ki worked out at 0.025 µM at rat orexin 1 receptor (read-out: rOX1 Ki) and 0.024 µM on human orexin 1 receptor (read-out: hOX1 Ki).
Take `O=C(c1cccc(F)c1-n1nccn1)N1C2CCC1C(COc1nccc(C(F)(F)F)n1)C2` (racemic) [Example 134, (±)-(3-fluoro-2-(2H-1,2,3-triazol-2-yl)phenyl)(2-(((4-(trifluoromethyl)pyrimidin-2-yl)oxy)methyl)-7-azabicyclo[2.2.1]heptan-7-yl)methanone]: the Ki on rat orexin 1 receptor amounted to 1.5 µM; on human orexin 1 receptor, 0.69 µM.
For the molecule `O=C(c1cccc(F)c1-c1ncccn1)N1[C@H]2CC[C@@H]1[C@@H](Nc1cnc(C(F)(F)F)cn1)C2` [Example 297, (3-fluoro-2-(pyrimidin-2-yl)phenyl)((1R,2S,4S)-2-((5-(trifluoromethyl)pyrazin-2-yl)amino)-7-azabicyclo[2.2.1]heptan-7-yl)methanone], the Ki at rat orexin 1 receptor was 0.402 µM; at human orexin 1 receptor (setting [2]) it was above 10 µM.
Take `O=C(c1cc(F)ccc1-n1nccn1)N1C2CCC1C(COc1ccc(F)cn1)C2` (racemic) [Example 30, (±)-(5-fluoro-2-(2H-1,2,3-triazol-2-yl)phenyl)(2-(((5-fluoropyridin-2-yl)oxy)methyl)-7-azabicyclo[2.2.1]heptan-7-yl)methanone]: the Ki turned out to be 0.06 µM at human orexin 1 receptor and 0.16 µM at human orexin 2 receptor (human orexin 2 receptor, Table 2, averages of 2-20 runs, read-out: hOX2 Ki).

By Ki is commonly meant a measure of affinity in units of concentration, obtained from inhibition or displacement.

Values taken from patent US9637496B2, “Substituted 7-azabicycles and their use as orexin receptor modulators” (priority 2013, dated 2017).
